“Also recorded” adds a separate entry of the source.
Key:
total AKT (T-AKT) = test: Immunoblotting of total AKT in BT474 cells; type: cell-based; conditions: 24 h, western blot; for T-AKT protein level: BT474 cells, 1 μM; for AKT (T-AKT) degradation: BT474 cells, 1, 5 and 10 μM
PC-3 xenografts [1] = conditions: PC3 xenograft, 75 mg/kg once daily IP; cited from earlier work
P-PRAS40, P-S6 = test: Downstream signaling in PC3 cells; conditions: for downstream signaling inhibition after washout: 1 μM for 24 h, then washout
[2] = test system: P-AKT (S473), P-PRAS40 (T246), P-S6 (S240/244); test: Immunoblotting of P-AKT and downstream signaling in BT474 cells; type: cell-based; conditions: 24 h; for downstream signaling inhibition: P-PRAS40 and P-S6, western blot
T-AKT [3] = test: T-AKT degradation in PC3 cells; type: cell-based, human; conditions: for T-AKT level after washout: 48 h post-treatment
PC3 cells = test: Cell proliferation assay; type: cell-based, human; conditions: 5 days
MDA-MB-468 cells = test: Cell proliferation assay; type: cell-based; conditions: 5 days
T-AKT, P-AKT, P-PRAS40 = test: Western blotting analysis of xenograft tumor samples; type: in vivo, mice; conditions: PC3 xenograft, 75 mg/kg once daily IP, end of study
BT474 cells = test: Cell colony formation assay; type: cell-based; conditions: 14 days
T-AKT [4] = test: Competition; type: cell-based, human; conditions: PC3 cells, then compound 24 h
PC-3 xenografts [5] = type: in vivo; conditions: PC3 xenograft mice, 75 mg/kg once daily IP, 22 days
[6] = Mouse pharmacokinetic study; type: in vivo, mice; conditions: male, Swiss Albino, plasma, ip, 150 mg/kg
[7] = BT474 cells, 1 μM, western blot

## 4-Amino-N-[(1S)-1-(4-chlorophenyl)-3-hydroxypropyl]-1-(7H-pyrrolo[2,3-d]pyrimidin-4-yl)piperidine-4-carboxamide [AZD5363, reference compound]
Total AKT (T-AKT)
  T-AKT protein level: downregulated the T-AKT protein level
PC-3 xenografts [1]
  tumor growth inhibition: 75%
P-PRAS40, P-S6; 24 h post-treatment
  downstream signaling inhibition after washout: near fully recovered
P-PRAS40, P-S6; 1 μM, 24 h
  PRAS40 and S6 phosphorylation: effectively inhibited PRAS40 and S6 phosphorylation
[2]; [7]
  downstream signaling (PRAS40 and S6 phosphorylation): effectively inhibited the phosphorylation of downstream PRAS40 and ribosomal protein S6
  phosphorylated AKT level: paradoxically upregulated the phosphorylated AKT level
T-AKT [3]; 1 μM, 24 h
  AKT protein level: did not significantly reduce the AKT protein level
PC3 cells
  GI50: 6.5 ± 2.9 µM
MDA-MB-468 cells
  GI50: 3.8 ± 1.6 µM

## Cc1ncsc1-c1ccc(CNC(=O)[C@@H]2C[C@@H](O)CN2C(=O)[C@@H](NC(=O)CCCCCCCCCCC(=O)N2CCN(CC[C@H](NC(=O)C3(N)CCN(c4ncnc5[nH]ccc45)CC3)c3ccc(Cl)cc3)CC2)C(C)(C)C)cc1 [Compound 20, 4-Amino-N-((S)-1-(4-chlorophenyl)-3-(4-(12-(((S)-1-((2S,4R)-4-hydroxy-2-((4-(4-methylthiazol-5-yl)benzyl)carbamoyl)pyrrolidin-1-yl)-3,3-dimethyl-1-oxobutan-2-yl)amino)-12-oxododecanoyl)-piperazin-1-yl)propyl)-1-(7H-pyrrolo[2,3-d]pyrimidin-4-yl)-piperidine-4-carboxamide]
T-AKT, P-AKT, P-PRAS40
  T-AKT and P-AKT in tumor samples: substantially degraded T-AKT and P-AKT
  downstream signaling (PRAS40 phosphorylation) in tumor samples: effectively inhibited the downstream signaling
P-PRAS40, P-S6; 48 h post-treatment
  downstream signaling inhibition after washout: partially recovered
[2]; BT474 cells, 1, 5 and 10 μM
  downstream signaling inhibition: slightly enhanced downstream signaling inhibition compared to 19
T-AKT [3]; 1 μM
  time to complete depletion of T-AKT: ≤ 8 h
T-AKT [3]; 1 μM for 24 h, then washout
  T-AKT level after washout: partially recovered
T-AKT [3]; washout experiments
  duration of sustained AKT degradation post treatment: 1 to 2 days
BT474 cells
  inhibition of colony formation: highly effective in inhibiting colony formation; also recorded: effectively inhibited colony formation
T-AKT [4]; 2 h pretreatment
  AKT degradation after pretreatment with MLN4924 or MG-132: significantly diminished the AKT degradation effect
T-AKT [4]; AZD5363 (1 μM) 2 h
  AKT degradation after pretreatment with excess AZD5363: rescued the AKT protein level
T-AKT [4]; VHL-2 (1 μM) 2 h
  AKT degradation after pretreatment with excess VHL ligand VHL-2: restored the AKT protein level effectively
PC-3 xenografts [5]
  tolerability: well tolerated

## Cc1ncsc1-c1ccc(CNC(=O)[C@@H]2C[C@@H](O)CN2C(=O)[C@@H](NC(=O)CCCCCCCCCCCC(=O)N2CCN(CC[C@H](NC(=O)C3(N)CCN(c4ncnc5[nH]ccc45)CC3)c3ccc(Cl)cc3)CC2)C(C)(C)C)cc1 [Compound 21, 4-Amino-N-((S)-1-(4-chlorophenyl)-3-(4-(13-(((S)-1-((2S,4R)-4-hydroxy-2-((4-(4-methylthiazol-5-yl)benzyl)carbamoyl)pyrrolidin-1-yl)-3,3-dimethyl-1-oxobutan-2-yl)amino)-13-oxotridecanoyl)-piperazin-1-yl)propyl)-1-(7H-pyrrolo[2,3-d]pyrimidin-4-yl)-piperidine-4-carboxamide]
[2]; BT474 cells, 1, 5 and 10 μM
  downstream signaling inhibition: slightly enhanced downstream signaling inhibition compared to 19
BT474 cells
  inhibition of colony formation: highly effective in inhibiting colony formation

## Cc1ncsc1-c1ccc([C@H](C)NC(=O)[C@@H]2C[C@@H](O)CN2C(=O)[C@@H](NC(=O)CCCCCCCCCC(=O)N2CCN(CC[C@H](NC(=O)C3(N)CCN(c4ncnc5[nH]ccc45)CC3)c3ccc(Cl)cc3)CC2)C(C)(C)C)cc1 [Compound 23, 4-Amino-N-((S)-1-(4-chlorophenyl)-3-(4-(11-(((S)-1-((2S,4R)-4-hydroxy-2-(((S)-1-(4-(4-methylthiazol-5-yl)phenyl)ethyl)carbamoyl)-pyrrolidin-1-yl)-3,3-dimethyl-1-oxobutan-2-yl)amino)-11-oxoundecanoyl)piperazin-1-yl)propyl)-1-(7H-pyrrolo[2,3-d]-pyrimidin-4-yl)piperidine-4-carboxamide]
Total AKT (T-AKT)
  AKT (T-AKT) degradation: did not show significant difference from 19
[2]; BT474 cells, 1, 5 and 10 μM
  downstream signaling inhibition: did not show significant difference from 19
BT474 cells
  inhibition of colony formation: did not show significant difference from 19

## NC1(C(=O)N[C@@H](CCN2CCN(C(=O)CCCCCNc3cccc4c3C(=O)N(C3CCC(=O)NC3=O)C4=O)CC2)c2ccc(Cl)cc2)CCN(c2ncnc3[nH]ccc23)CC1 (stereo partly drawn) [Compound 28, 4-Amino-N-((1S)-1-(4-chlorophenyl)-3-(4-(6-((2-(2,6-dioxopiperidin-3-yl)-1,3-dioxoisoindolin-4-yl)amino)hexanoyl)piperazin-1-yl)-propyl)-1-(7H-pyrrolo[2,3-d]pyrimidin-4-yl)piperidine-4-carboxamide]
Total AKT (T-AKT)
  AKT (T-AKT) degradation: moderate effectiveness
[2]; BT474 cells, 1, 5 and 10 μM
  downstream signaling inhibition: moderate effectiveness

## NC1(C(=O)N[C@@H](CCN2CCN(C(=O)CCOCCOCCOCCOCCOCCNc3cccc4c3C(=O)N(C3CCC(=O)NC3=O)C4=O)CC2)c2ccc(Cl)cc2)CCN(c2ncnc3[nH]ccc23)CC1 (stereo partly drawn) [Compound 35, 4-Amino-N-((1S)-1-(4-chlorophenyl)-3-(4-(1-((2-(2,6-dioxopiperidin-3-yl)-1,3-dioxoisoindolin-4-yl)amino)-3,6,9,12,15-pentaoxaoctadecan-18-oyl)piperazin-1-yl)propyl)-1-(7H-pyrrolo[2,3-d]-pyrimidin-4-yl)piperidine-4-carboxamide]
[6]
  AUC: 32500 ng·h/mL
  Cmax: 8 µM
  Tmax: 1 h
P-PRAS40, P-S6; 24 h post-treatment
  downstream signaling inhibition after washout: near fully recovered
[2]; BT474 cells, 1, 5 and 10 μM, among 32–38
  inhibition of phosphorylation of ribosomal protein S6: most effective in inhibiting the phosphorylation of ribosomal protein S6
T-AKT [3]; 1 μM for 24 h, then washout, 24 h post-treatment
  AKT protein level after washout: rebounded substantially
T-AKT [3]; 1 μM for 24 h, then washout
  T-AKT level after washout: completely recovered

## NC1(C(=O)N[C@@H](CCN2CCN(C(=O)CCOCCOCCOCCOCCOCCOc3cccc4c3C(=O)N(C3CCC(=O)NC3=O)C4=O)CC2)c2ccc(Cl)cc2)CCN(c2ncnc3[nH]ccc23)CC1 (stereo partly drawn) [Compound 40, 4-Amino-N-((1S)-1-(4-chlorophenyl)-3-(4-(1-((2-(2,6-dioxopiperidin-3-yl)-1,3-dioxoisoindolin-4-yl)oxy)-3,6,9,12,15-pentaoxaoctadecan-18-oyl)piperazin-1-yl)propyl)-1-(7H-pyrrolo[2,3-d]pyrimidin-4-yl)piperidine-4-carboxamide]
Total AKT (T-AKT)
  AKT (T-AKT) degradation: did not improve
BT474 cells
  inhibition of colony formation: did not improve

## NC1(C(=O)N[C@@H](CCN2CCN(C(=O)CCOCCOCCOCCOCCOCCCc3cccc4c3C(=O)N(C3CCC(=O)NC3=O)C4=O)CC2)c2ccc(Cl)cc2)CCN(c2ncnc3[nH]ccc23)CC1 (some centres unmarked) [Compound 41]
Total AKT (T-AKT)
  AKT (T-AKT) degradation: did not improve
BT474 cells
  inhibition of colony formation: did not improve

## CN1C(=O)CCC(N2C(=O)c3cccc(NCCOCCOCCOCCOCCOCCC(=O)N4CCN(CC[C@H](NC(=O)C5(N)CCN(c6ncnc7[nH]ccc67)CC5)c5ccc(Cl)cc5)CC4)c3C2=O)C1=O (stereo partly drawn) [Compound 43, 4-Amino-N-((1S)-1-(4-chlorophenyl)-3-(4-(1-((2-(1-methyl-2,6-dioxopiperidin-3-yl)-1,3-dioxoisoindolin-4-yl)amino)-3,6,9,12,15-pentaoxaoctadecan-18-oyl)piperazin-1-yl)propyl)-1-(7H-pyrrolo-[2,3-d]pyrimidin-4-yl)piperidine-4-carboxamide]
T-AKT [3]; concentrations up to 10 μM, 24 h
  T-AKT protein level: did not reduce the T-AKT protein level
PC3 cells
  GI50: inactive
MDA-MB-468 cells
  GI50: inactive

## Cc1ncsc1-c1ccc(CNC(=O)[C@@H]2C[C@@H](O)CN2C(=O)[C@@H](N)C(C)(C)C)cc1 [VHL-1, (2S,4R)-1-[(S)-2-amino-3,3-dimethylbutanoyl]-4-hydroxy-N-[4-(4-methylthiazol-5-yl)benzyl]pyrrolidine-2-carboxamide, reference compound]
Total AKT (T-AKT)
  T-AKT protein level: no effect
[2]; [7]
  downstream signaling (PRAS40 and S6 phosphorylation): no effect

Source: article PMC8900464 (Journal of medicinal chemistry, 2022)
